We go through 2 molecules from patent US20200390100A1, “SUBSTITUTED N-HETEROCYCLYL- AND N-HETEROARYL-TETRAHYDROPYRIMIDINONES AND THE SALTS THEREOF, AND THE USE OF SAME AS HERBICIDAL ACTIVE SUBSTANCES” (Bayer Aktiengesellschaft, priority 2017, published 2020).

What all share (format): in vivo
For experiment [1], the system named is Abutilon theophrasti. In words: Herbicidal post-emergence action (Part 2), 1280 g/ha. To be noted: application rate 1280 g/ha, rated visually after about 3 weeks, Table C4. Put shortly: (§1)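 Plants at the one-leaf stage were treated on green parts with wettable powder or emulsion concentrate preparations diluted in water containing 0.5% additive. Effects were judged by eye after about 3 weeks in the greenhouse, relative to untreated plants.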

In experiment [2] the test system is Amaranthus retroflexus. The description is as above. The conditions noted are these: application rate 1280 g/ha, rated visually after about 3 weeks, Table C5. The gist of the method:
as §1

For experiment [3], the system named is Echinochloa crus-galli. The experiment is described as above. The conditions noted are these: post-emergence (Part 2), application rate 1280 g/ha, rated visually after about 3 weeks vs untreated controls. The gist of the method: as §1
Experiment [4] relates to Matricaria inodora. The experiment is described as above. To be noted: application rate 1280 g/ha, rated visually after about 3 weeks, Table C6. Put shortly: as §1
For experiment [5], the system named is Poa annua. Described as above. The conditions noted are these: application rate 1280 g/ha, rated visually after about 3 weeks, Table C2. The gist of the method: as §1
For experiment [6], the system named is Setaria viridis. The description is as above. To be noted: application rate 1280 g/ha, rated visually after about 3 weeks, Table C3. Put shortly: as §1
In experiment [7] the test system is Stellaria media. The description is as above. To be noted: application rate 1280 g/ha, rated visually after about 3 weeks, Table C7. Put shortly:
as §1

Experiment [8] relates to Abutilon theophrasti. In words: Herbicidal pre-emergence action (Part 2), 1280 g/ha. The conditions noted are these: application rate 1280 g/ha, scored visually after about 3 weeks, Table D5. The gist of the method:
(§2)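 Surface soil treatment over sown weed seeds in sandy loam used formulated compound in water with 0.5% additive at a 600 L/ha spray volume. Effect was rated visually in percent versus untreated plants after about three weeks of greenhouse growth.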

In experiment [9] the test system is Amaranthus retroflexus. The experiment is described as above. To be noted: application rate 1280 g/ha, scored visually after about 3 weeks, Table D6. Put shortly: as §2
Experiment [10] deals with Echinochloa crus-galli. The experiment is described as above. To be noted: application rate 1280 g/ha, scored visually after about 3 weeks, Table D1. The gist of the method: as §2
Experiment [11] has as its system Lolium rigidum. Described as above. To be noted: application rate 1280 g/ha, scored visually after about 3 weeks, Table D2. Put shortly:
as §2

Experiment [12] relates to Matricaria inodora. The description is as above. To be noted: application rate 1280 g/ha, scored visually after about 3 weeks, Table D7. The gist of the method: as §2
Experiment [13] deals with Poa annua. The experiment is described as above. To be noted: application rate 1280 g/ha, scored visually after about 3 weeks, Table D3. The gist of the method:
as §2

Experiment [14] concerns Setaria viridis. The description is as above. The conditions noted are these: application rate 1280 g/ha, scored visually after about 3 weeks, Table D4. The gist of the method: as §2
Experiment [15] has as its system Stellaria media. The experiment is described as above. The conditions noted are these: application rate 1280 g/ha, scored visually after about 3 weeks, Table D8. The gist of the method:
as §2

The subject of experiment [16] is Abutilon theophrasti. Nature of the experiment: Post-emergence herbicidal action, greenhouse, 320 g/ha. The conditions noted are these: application rate 320 g/ha, rated visually after about 3 weeks vs untreated controls. Put shortly: (§3)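 Plants treated post-emergence at the one-leaf stage, 2 to 3 weeks after sowing in sandy loam, with WP or EC formulations plus 0.5% additive at 320 g/ha. Visual rating about 3 weeks later versus untreated controls (100% = dead, 0% = like control).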

In experiment [17] the test system is Alopecurus myosuroides. The description is as above. To be noted: application rate 320 g/ha, rated visually after about 3 weeks vs untreated controls. Put shortly:
as §3

Experiment [18] has as its system Amaranthus retroflexus. The experiment is described as above. The conditions noted are these: application rate 320 g/ha, rated visually after about 3 weeks vs untreated controls. The gist of the method:
as §3

The subject of experiment [19] is Digitaria sanguinalis. Described as above. The conditions noted are these: application rate 320 g/ha, rated visually after about 3 weeks vs untreated controls. The gist of the method:
as §3

For experiment [20], the system named is Hordeum murinum. The experiment is described as above. The conditions noted are these: application rate 320 g/ha, rated visually after about 3 weeks vs untreated controls. The gist of the method:
as §3

In experiment [21] the test system is Matricaria inodora. Described as above. The conditions noted are these: application rate 320 g/ha, rated visually after about 3 weeks vs untreated controls. The gist of the method:
as §3

Experiment [22] deals with Pharbitis purpurea. The experiment is described as above. To be noted: application rate 320 g/ha, rated visually after about 3 weeks vs untreated controls. Put shortly:
as §3

In experiment [23] the test system is Polygonum convolvulus. Described as above. To be noted: application rate 320 g/ha, rated visually after about 3 weeks vs untreated controls. The gist of the method:
as §3

Experiment [24] concerns Setaria viridis. The description is as above. To be noted: application rate 320 g/ha, rated visually after about 3 weeks vs untreated controls. Put shortly:
as §3

In experiment [25] the test system is Stellaria media. The experiment is described as above. To be noted: application rate 320 g/ha, rated visually after about 3 weeks vs untreated controls. Put shortly: as §3
Experiment [26] has as its system Veronica persica. The experiment is described as above. To be noted: application rate 320 g/ha, rated visually after about 3 weeks vs untreated controls. The gist of the method: as §3
For experiment [27], the system named is Viola tricolor. The description is as above. The conditions noted are these: application rate 320 g/ha, rated visually after about 3 weeks vs untreated controls. Put shortly: as §3
Experiment [28] relates to Abutilon theophrasti. Nature of the experiment: Pre-emergence herbicidal action, greenhouse, 320 g/ha. The conditions noted are these: application rate 320 g/ha, scored visually after about 3 weeks vs untreated controls. Put shortly:
(§4)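 Soil-surface application onto covered seeds; WP or EC formulation with 0.5% additive in aqueous spray; visual rating at ~3 weeks, 0–100% vs untreated plants.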

The subject of experiment [29] is Alopecurus myosuroides. The experiment is described as above. The conditions noted are these: application rate 320 g/ha, scored visually after about 3 weeks vs untreated controls. The gist of the method:
as §4

Experiment [30] relates to Amaranthus retroflexus. The description is as above. The conditions noted are these: application rate 320 g/ha, scored visually after about 3 weeks vs untreated controls. The gist of the method: as §4
Experiment [31] has as its system Avena fatua. The description is as above. The conditions noted are these: application rate 320 g/ha, scored visually after about 3 weeks vs untreated controls. Put shortly: as §4
For experiment [32], the system named is Echinochloa crus-galli. The experiment is described as above. The conditions noted are these: application rate 320 g/ha, scored visually after about 3 weeks vs untreated controls. Put shortly: as §4
Experiment [33] has as its system Hordeum murinum. Described as above. The conditions noted are these: application rate 320 g/ha, Table B14. Put shortly:
as §4

The subject of experiment [34] is Matricaria inodora. Described as above. To be noted: application rate 320 g/ha, scored visually after about 3 weeks vs untreated controls. The gist of the method: as §4
Experiment [35] concerns Pharbitis purpurea. The experiment is described as above. To be noted: application rate 320 g/ha, Table B12. Put shortly:
as §4

Experiment [36] has as its system Polygonum convolvulus. The experiment is described as above. The conditions noted are these: application rate 320 g/ha, scored visually after about 3 weeks vs untreated controls. Put shortly: as §4
Experiment [37] concerns Setaria viridis. The description is as above. To be noted: application rate 320 g/ha, Table B11. Put shortly: as §4
In experiment [38] the test system is Stellaria media. The experiment is described as above. To be noted: application rate 320 g/ha, scored visually after about 3 weeks vs untreated controls. The gist of the method: as §4
The test system of experiment [39] is Veronica persica. The description is as above. The conditions noted are these: application rate 320 g/ha, Table B13. Put shortly:
as §4

Experiment [40] concerns Viola tricolor. The description is as above. The conditions noted are these: application rate 320 g/ha, Table B8. The gist of the method:
as §4

With `CC(C)C(=O)OC1CCN(C)C(=O)N1c1cc(C(C)(C)C)on1` (stereo not shown) [I.5-162], the Abutilon theophrasti in experiment [1] and in experiment [8] was 100% throughout. The Amaranthus retroflexus in [2] and in [9] was 100% throughout. Besides, the Echinochloa crus-galli in experiment [3] and in experiment [10] was 100% each time. The Matricaria inodora in experiment [4] and in experiment [12] was 100% in each case. For the same molecule, the “Poa Annua” value in experiment [5] and in experiment [13] was 100% each time. Also, the Setaria viridis in experiment [6] and in experiment [14] was 100% throughout. For the same molecule, the Stellaria media in experiment [7] and in [15] was 100% throughout. The Lolium rigidum in [11] worked out at 90%.
In the case of `CC(C)CC(=O)OC1CCN(C)C(=O)N1c1cc(C(C)(C)C)on1` (stereo not shown) [I.7-162, 3-(5-tert-Butyl-1,2-oxazol-3-yl)-1-methyl-2-oxohexahydropyrimidin-4-yl 3-methylbutanoate], the “Abutilon theophrasti (efficacy in %)” value in experiment [16] and in experiment [28] was 100% each time. The “Alopecurus myosuroides (efficacy in %)” value in experiment [17] and in [29] was 90% each time. The “Amaranthus retroflexus (efficacy in %)” value in experiment [18] and in experiment [30] was 100% in each case. The “Digitaria sanguinalis (efficacy in %)” value in experiment [19] was 80%. Moreover, the “Hordeum murinum (efficacy in %)” value in experiment [20] is 80%; in experiment [33], 90%. The “Matricaria inodora (efficacy in %)” value in experiment [21] and in experiment [34] was 100% throughout. For the same molecule, the “Pharbitis purpurea (efficacy in %)” value in experiment [22] and in experiment [35] was 100% in each case. Moreover, the “Polygonum convolvulus (efficacy in %)” value in experiment [23] and in [36] was 90% each time. Moreover, the “Setaria viridis (efficacy in %)” value in [24] and in experiment [37] was 100% each time. The “Stellaria media (efficacy in %)” value in experiment [25] and in experiment [38] was 100% in each case. In addition, the “Veronica persica (efficacy in %)” value in [26] came out at 90%; in experiment [39], 80%. In addition, the “Viola tricolor (efficacy in %)” value in experiment [27] and in experiment [40] was 100% each time. Further, the “Avena fatua (efficacy in %)” value in experiment [31] worked out at 100%. Further, the “Echinochloa crus-galli (efficacy in %)” value in experiment [32] turned out to be 80%.
